Source: patent publication US8063077B2, “Factor Xa inhibitors” (Millennium Pharmaceuticals, Inc., priority 2006, dated 2011)
pIC50: −log10 of the molar value.

biological target: T1, human plasma protein factor Xa (Homo sapiens, UniProt P00742); assay: Factor Xa IC50 determination, cleavage of paranitroanilide substrate S-2765; format: biochemical; conditions: factor Xa 1 nM, S2765 100 μM, Tris buffered saline pH 7.4, 5% DMSO
T1 construct: The human plasma protein factor Xa was purchased from Haematologic Technologies; purchased Haematologic Technologies (Essex Junction, Vt.); host or cells: human plasma
Text: This example illustrates methods for evaluating the compounds of the invention, along with results obtained for such assays. The in vitro and in vivo human Factor Xa activities of the inventive compounds can be determined by various procedures known in the art, such as a test for their ability to inhibit the activity of human plasma Factor Xa. […] The IC50 value is the concentration (in nM) of the compound required to provide 50% inhibition of human Factor Xa proteolytic activity.
An in vitro assay for detecting and measuring inhibition activity against Factor Xa is as follows:
The substrate S-2765 (Z-D-Arg-Gly-Arg-pNA•HCl) was obtained from Diapharma (West Chester, Ohio).
The human plasma protein factor Xa was purchased from Haematologic Technologies (Essex Junction, Vt.).
All assays, which are performed in 96-well microtiter plates, measure proteolytic activity of the enzyme (factor Xa) by following cleavage of a paranitroanilide peptide substrate. The assay buffer used for proteolytic assays was Tris buffered saline (20 mM Tris, 150 mM NaCl, 5 mM CaCl2, 0.1% Bovine serum albumin (BSA), 5% Dimethly Sulfoxide (DMSO) pH 7.4). In a 96-well microtiter plate, inhibitor was serially diluted to give a range of final concentrations from 0.01 nM to 10 μM. Duplicate sets of wells were assayed and control wells without inhibitor were included. Enzyme was added to each well, (factor Xa concentration=1 nM), the plate was shaken for 5 seconds and then incubated for 5 minutes at room temperature. S2765 was added (100 μM final) and the plate was shaken for 5 seconds (final volume in each well was 200 μl). The degree of substrate hydrolysis was measured at 405 nm on a Thermomax plate reader (Molecular Devices, Sunnyvale, Calif.) for 2 minutes. The initial velocities of substrate cleavage (mOD/min), for each range of inhibitor concentrations, were fitted to a four parameter equation using Softmax data analysis software. The parameter C, derived from the resulting curve-fit, corresponded to the concentration for half maximal inhibition (IC50).

T1 sequence (P00742 235-488 limits assumed): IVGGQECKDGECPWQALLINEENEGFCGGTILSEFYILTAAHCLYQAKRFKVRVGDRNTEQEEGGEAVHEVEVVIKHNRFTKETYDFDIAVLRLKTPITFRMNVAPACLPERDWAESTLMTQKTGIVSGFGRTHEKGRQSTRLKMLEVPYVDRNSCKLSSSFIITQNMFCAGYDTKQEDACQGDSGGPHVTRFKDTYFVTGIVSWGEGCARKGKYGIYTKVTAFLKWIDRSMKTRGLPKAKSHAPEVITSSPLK
T1 sequence (P00742 41-179 partner limits assumed): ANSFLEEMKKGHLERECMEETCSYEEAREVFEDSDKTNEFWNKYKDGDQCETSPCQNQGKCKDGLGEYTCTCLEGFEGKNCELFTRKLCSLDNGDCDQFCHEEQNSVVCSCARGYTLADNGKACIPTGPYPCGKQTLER

Row | Structure (SMILES) | pIC50
1 | CCN1CCN(c2ccc(-n3cnc(CNC(=O)c4ccc(Cl)s4)c3)cc2)C(=O)C1=O [Compound 60, 5-chloro-N-((1-(4-(4-ethyl-2,3-dioxopiperazin-1-yl)phenyl)-1H-imidazol-4-yl)methyl)thiophene-2-carboxamide] | ≤ 6.30
2 | O=C(NCc1cn(-c2ccc(-n3ccccc3=O)cc2F)cn1)c1ccc(Cl)s1 [Compound 21, 5-Chloro-N-((1-(2-fluoro-4-(2-oxopyridin-1(2H)-yl)phenyl)-1H-imidazol-4-yl)methyl)thiophene-2-carboxamide] | ≥ 7.00
3 | CS(=O)(=O)c1nc(CNC(=O)c2ccc(Cl)s2)cn1-c1ccc(-n2cccc(F)c2=O)cc1 [Compound 67, 5-chloro-N-((1-(4-(3-fluoro-2-oxopyridin-1(2H)-yl)phenyl)-2-(methylsulfonyl)-1H-imidazol-4-yl)methyl)thiophene-2-carboxamide] | ≥ 7.00
4 | Nc1ccn(-c2ccc(-n3cnc(CNC(=O)c4ccc(Cl)s4)c3)cc2)c(=O)n1 [Compound 48, N-((1-(4-(4-amino-2-oxopyrimidin-1(2H)-yl)phenyl)-1H-imidazol-4-yl)methyl)-5-chlorothiophene-2-carboxamide] | ≥ 7.00
5 | Cc1cccc(=O)n1-c1ccc(-n2cnc(CNC(=O)c3ccc(Cl)s3)c2)cc1 [Compound 14, 5-chloro-N-((1-(4-(6-methyl-2-oxopyridin-1(2H)-yl)phenyl)-1H-imidazol-4-yl)methyl)thiophene-2-carboxamide] | ≥ 7.00
6 | O=C(NCc1cn(-c2ccc(-n3ccccc3=O)cc2OCCN2CCCCC2)cn1)c1ccc(Cl)s1 [Compound 53, 5-chloro-N-((1-(4-(2-oxopyridin-1(2H)-yl)-2-(2-(piperidin-1-yl)ethoxy)phenyl)-1H-imidazol-4-yl)methyl)thiophene-2-carboxamide] | ≥ 7.00
7 | O=C(NCc1cn(-c2ccc(-n3ccccc3=O)cc2O)cn1)c1ccc(Cl)s1 [Compound 28, 5-Chloro-N-((1-(2-hydroxy-4-(2-oxopyridin-1(2H)-yl)phenyl)-1H-imidazol-4-yl)methyl)thiophene-2-carboxamide] | 6.30 to 7.00
8 | O=C(NCc1cn(-c2ccc(-n3ccnc(O)c3=O)cc2)cn1)c1ccc(Cl)s1 [Compound 58, 5-chloro-N-((1-(4-(3-hydroxy-2-oxopyrazin-1(2H)-yl)phenyl)-1H-imidazol-4-yl)methyl)thiophene-2-carboxamide] | ≥ 7.00
9 | O=C(NCc1cn(-c2ccc(-n3ccccc3=O)cc2)cn1)c1ccc2[nH]ccc2c1 [Compound 54, N-((1-(4-(2-oxopyridin-1(2H)-yl)phenyl)-1H-imidazol-4-yl)methyl)-1H-indole-5-carboxamide] | ≤ 6.30
10 | O=C(NCc1cn(-c2ccc(-n3ccc(O)cc3=O)cc2)cn1)c1ccc(Cl)s1 [Compound 46, 5-chloro-N-((1-(4-(4-hydroxy-2-oxopyridin-1(2H)-yl)phenyl)-1H-imidazol-4-yl)methyl)thiophene-2-carboxamide] | 6.30 to 7.00
11 | NC(=O)/N=c1\ccccn1-c1ccc(-n2cnc(CNC(=O)c3ccc(Cl)s3)c2)cc1 [Compound 61, N-((1-(4-(2-(carbamoylimino)pyridin-1(2H)-yl)phenyl)-1H-imidazol-4-yl)methyl)-5-chlorothiophene-2-carboxamide] | ≥ 7.00
12 | O=C(NCc1cn(-c2ccc(-n3cccc(F)c3=O)cc2)cn1)c1ccc(Cl)s1 [Compound 43, 5-chloro-N-((1-(4-(3-fluoro-2-oxopyridin-1(2H)-yl)phenyl)-1H-imidazol-4-yl)methyl)thiophene-2-carboxamide] | ≥ 7.00
13 | O=C(NCc1cn(-c2ccc(-n3ccccc3=S)cc2)cn1)c1ccc(Cl)s1 [Compound 30, 5-Chloro-N-((1-(4-(2-thioxopyridin-1(2H)-yl)phenyl)-1H-imidazol-4-yl)methyl)thiophene-2-carboxamide] | ≥ 7.00
14 | O=C(NCc1cn(-c2ccc(-n3ncccc3=O)cc2)cn1)c1ccc(Cl)s1 [Compound 13, 5-Chloro-N-((1-(4-(6-oxopyridazin-1(6H)-yl)phenyl)-1H-imidazol-4-yl)methyl)thiophene-2-carboxamide] | ≤ 6.30
15 | CC(=O)Nc1ccn(-c2ccc(-n3cnc(CNC(=O)c4ccc(Cl)s4)c3)cc2)c(=O)n1 [Compound 51, N-((1-(4-(4-acetamido-2-oxopyrimidin-1(2H)-yl)phenyl)-1H-imidazol-4-yl)methyl)-5-chlorothiophene-2-carboxamide] | ≥ 7.00
16 | Cn1c(Cl)ccc1C(=O)NCc1cn(-c2ccc(-n3ccccc3=O)cc2)cn1 [Compound 38, 5-chloro-1-methyl-N-((1-(4-(2-oxopyridin-1(2H)-yl)phenyl)-1H-imidazol-4-yl)methyl)-1H-pyrrole-2-carboxamide] | ≤ 6.30
17 | C[S+]([O-])c1nc(CNC(=O)c2ccc(Cl)s2)cn1-c1ccc(-n2ccccc2=O)cc1 (stereo not shown) [Compound 57, 5-chloro-N-((2-(methylsulfinyl)-1-(4-(2-oxopyridin-1(2H)-yl)phenyl)-1H-imidazol-4-yl)methyl)thiophene-2-carboxamide] | ≥ 7.00
18 | COc1cccn(-c2ccc(-n3cnc(CNC(=O)c4ccc(Cl)s4)c3)cc2)c1=O [Compound 41, 5-chloro-N-((1-(4-(3-methoxy-2-oxopyridin-1(2H)-yl)phenyl)-1H-imidazol-4-yl)methyl)thiophene-2-carboxamide] | ≥ 7.00
19 | N#C/N=c1\ccccn1-c1ccc(-n2cnc(CNC(=O)c3ccc(Cl)s3)c2)cc1 [Compound 33, (E)-5-chloro-N-((1-(4-(2-(cyanoimino)pyridin-1(2H)-yl)phenyl)-1H-imidazol-4-yl)methyl)thiophene-2-carboxamide] | ≥ 7.00
20 | O=C(NCc1cn(-c2ccc(N3CCOCC3=O)cc2)cn1)c1ccc(Cl)s1 [Compound 11, 5-Chloro-N-((1-(4-(3-oxomorpholino)phenyl)-1H-imidazol-4-yl)methyl)thiophene-2-carboxamide] | ≥ 7.00
21 | O=C(NCc1cn(-c2ccc(N3CCCNC3=O)cc2)cn1)c1ccc(Cl)s1 [Compound 18, 5-Chloro-N-((1-(4-(2-oxo-tetrahydropyrimidin-1(2H)-yl)phenyl)-1H-imidazol-4-yl)methyl)thiophene-2-carboxamide] | ≥ 7.00
22 | Cc1cccn(-c2ccc(-n3cnc(CNC(=O)c4ccc(Cl)s4)c3)cc2)c1=O [Compound 44, 5-chloro-N-((1-(4-(3-methyl-2-oxopyridin-1(2H)-yl)phenyl)-1H-imidazol-4-yl)methyl)thiophene-2-carboxamide] | ≥ 7.00
23 | O=C(NCc1cn(-c2ccc(-n3ccccc3=O)c(F)c2)cn1)c1ccc(Cl)s1 [Compound 40, 5-chloro-N-((1-(3-fluoro-4-(2-oxopyridin-1(2H)-yl)phenyl)-1H-imidazol-4-yl)methyl)thiophene-2-carboxamide] | ≥ 7.00
24 | O=C(NCc1cn(-c2ccc(N3CC[S+]([O-])CC3=O)cc2)cn1)c1ccc(Cl)s1 (stereo not shown) [Compound 17, 5-Chloro-N-((1-(4-(1,3-dioxothiomorpholino)phenyl)-1H-imidazol-4-yl)methyl)thiophene-2-carboxamide] | 6.30 to 7.00
25 | O=C(NCc1cn(-c2ccc(N3CCCCC3=O)cc2)cn1)c1ccc(Cl)s1 [Compound 52, 5-chloro-N-((1-(4-(2-oxopiperidin-1-yl)phenyl)-1H-imidazol-4-yl)methyl)thiophene-2-carboxamide] | ≥ 7.00
